Tested on: Plasmodium falciparum strain 3D7
Test: Growth inhibition assay with or without chloroquine, strain 3D7 (Example 3)
Assay type: cell-based
Protocol: Each P. falciparum strain (BEI Resources) was first synchronized with 5% D-sorbitol following standard protocols at 3-5% hematocrit and 1-2% parasitaemia 20-24 hours prior to the start of the assay. Infected human erythrocytes were prepared at a starting parasitaemia of 0.4-0.7% and 2% hematocrit. Infected erythrocytes were combined with PfRH5-specific or control antibodies starting at a concentration of 666.67 nM with 1:5 serial dilution for each IgG1 antibody and chloroquine at one of two concentrations, 4.91 or 6.58 nM. […] The parasites were grown for 40-48 h until the schizont stage was reached (one complete life cycle). Parasite growth was stopped with three washes of cold PBS. Final parasitaemia was determined by measuring the parasite lactate dehydrogenase (LDH) activity. Percent growth inhibition was expressed relative to uninfected erythrocytes.

CCN(CC)CCCC(C)Nc1ccnc2cc(Cl)ccc12 (stereo not shown) [chloroquine, reference compound]
1025 of chloroquine with the susceptible 3D7 strain: 4.91 nM
